Test results taken from ChEMBL document CHEMBL1201862, “PubChem BioAssay data set” (2004).
Activity calls are given as the source filed them. Cut-off read from the data, not from the text of the source, for most assays here: actives have a measured EC50 and inactives only a lower limit.

Key:
[1] = luciferase reporter signal suppression in cells – H4 neuroglioma cells, luminescence, dose response (AID 1990); assay type: functional, cell-based
[2] = Luminescence Cell-Based Dose Response HTS to Identify Inhibitors of 5'UTR Stem-Loop Driven Prion Protein mRNA Translation in H4 Neuroglioblastoma Cells. [Related pubchem assays: 1827 (Project Summary), 1813 (Primary HTS)]; assay type: functional
[3] = alpha-synuclein stem-loop luciferase translation blockers – H4 neuroglioma cells, luminescence, confirmation (AID 1988); assay type: functional, cell-based
[4] = target: Luciferin 4-monooxygenase (Photinus pyralis, UniProt P08659); assay: inhibition of purified Photinus pyralis luciferase – biochemical, luminescence, dose response (AID 1891)
Sequence of Luciferin 4-monooxygenase (P08659 whole entry): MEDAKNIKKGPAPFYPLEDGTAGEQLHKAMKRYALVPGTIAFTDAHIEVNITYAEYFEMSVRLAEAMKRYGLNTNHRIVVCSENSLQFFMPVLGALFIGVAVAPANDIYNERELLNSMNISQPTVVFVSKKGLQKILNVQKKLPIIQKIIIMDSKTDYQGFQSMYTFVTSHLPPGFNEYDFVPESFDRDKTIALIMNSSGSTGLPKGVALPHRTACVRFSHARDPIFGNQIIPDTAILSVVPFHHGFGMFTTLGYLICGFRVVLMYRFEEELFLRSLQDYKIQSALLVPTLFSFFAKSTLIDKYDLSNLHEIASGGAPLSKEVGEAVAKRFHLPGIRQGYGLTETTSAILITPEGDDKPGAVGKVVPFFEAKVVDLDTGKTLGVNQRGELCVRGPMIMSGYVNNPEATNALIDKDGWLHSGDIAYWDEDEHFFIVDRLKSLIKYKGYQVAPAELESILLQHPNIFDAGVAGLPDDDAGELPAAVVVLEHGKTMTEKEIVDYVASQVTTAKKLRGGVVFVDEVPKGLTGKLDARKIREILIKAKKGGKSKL

[5] = Luminescence Cell-Based Dose Confirmation HTS to Identify Inhibitors of Platelet Dense Granule Release. [Related pubchem assays: 1663 (Primary HTS), 1678 (Summary of Project)]; assay type: functional
[6] = target: T1, RNA-binding protein pos-1 (Caenorhabditis elegans, UniProt G5EF15); assay: disruptors of C. elegans POS-1 RNA interaction – biochemical, fluorescence polarization, dose response (AID 1964);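 note: purified POS-1 fused to maltose binding protein made in E. coli; potency of compounds blocking POS-1 binding to fluorescent RNA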
T1 sequence (G5EF15 whole entry): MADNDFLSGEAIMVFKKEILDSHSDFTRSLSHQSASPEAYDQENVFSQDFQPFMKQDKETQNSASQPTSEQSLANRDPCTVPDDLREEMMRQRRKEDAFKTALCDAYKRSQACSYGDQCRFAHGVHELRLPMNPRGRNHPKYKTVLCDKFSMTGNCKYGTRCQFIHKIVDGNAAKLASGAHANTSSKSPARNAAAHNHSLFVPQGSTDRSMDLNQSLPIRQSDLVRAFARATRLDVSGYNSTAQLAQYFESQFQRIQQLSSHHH

[7] = target: T2, Zinc finger protein mex-5 (Caenorhabditis elegans, UniProt Q9XUB2); assay: potency of MEX-5 RNA-binding blockers – biochemical, C. elegans, fluorescence polarization, dose response (AID 1960)
T2 sequence (Q9XUB2 whole entry): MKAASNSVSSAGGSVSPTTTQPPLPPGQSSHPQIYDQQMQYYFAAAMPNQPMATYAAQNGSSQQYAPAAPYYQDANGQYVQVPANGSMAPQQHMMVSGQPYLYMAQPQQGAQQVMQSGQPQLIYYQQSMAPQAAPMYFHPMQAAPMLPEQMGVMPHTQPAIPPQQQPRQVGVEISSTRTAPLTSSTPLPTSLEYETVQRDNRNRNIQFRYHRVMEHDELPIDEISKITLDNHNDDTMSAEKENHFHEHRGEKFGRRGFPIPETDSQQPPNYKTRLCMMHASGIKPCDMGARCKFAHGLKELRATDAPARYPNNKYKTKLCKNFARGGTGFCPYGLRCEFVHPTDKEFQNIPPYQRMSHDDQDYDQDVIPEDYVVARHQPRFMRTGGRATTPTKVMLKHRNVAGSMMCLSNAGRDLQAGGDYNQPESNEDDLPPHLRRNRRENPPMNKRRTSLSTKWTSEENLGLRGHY

[8] = NIH-3T3 fibroblast cytotoxicity, dose response, cytotoxicity control, cell-based, fluorescence, Alamar Blue, secondary assay (AID 2327); assay type: functional;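 note: NIH-3T3 mouse fibroblasts cultured with fluconazole at 8 µg/mL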
[9] = fluconazole-exposed Candida albicans growth modulators – fluorescence, retest, confirmation (AID 2467); assay type: functional, cell-based
[10] = system: Streptococcus sp. 'group A'; assay: Streptococcus pyogenes SK(-)GAS viability under kanamycin – luminescence, BacTiterGlo, confirmation, counter-screen for streptokinase expression inhibitor project, dose response (AID 1900); assay type: functional, organism-based
[11] = Trypanosoma cruzi growth suppression in host cells – NIH3T3 host cells, beta-gal luminescence, confirmation (AID 2044); assay type: functional, cell-based;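 note: intracellular parasites grown in NIH/3T3 mouse fibroblasts as host cells; luminescent beta-galactosidase reporter signal from transgenic T. cruzi replicating inside host cells; inhibitors lower the luminescence signal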
[12] = NIH3T3 cell viability loss – ATP luminescence, mouse fibroblasts, counter-screen, dose response (AID 2010); assay type: functional, cell-based;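 note: cells exposed to compound for about 90 hours before reading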
[13] = system: Streptococcus; assay: GAS UMAA2166 growth inhibition – luminescence, BacTiterGlo, counter-screen for streptokinase expression inhibitor project, dose response (AID 1915); assay type: functional, organism-based;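 note: potency for reduction of bacterial viability or growth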
[14] = system: INS1; assay: INS-1E survival protection against cytokine death – cell-based, luminescence, retest, dose response (AID 449756); assay type: functional; conditions: Rattus norvegicus;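 note: cell death triggered by IL-1 beta plus TNF-alpha plus IFN-gamma mixture; protective hits raise ATP signal compared with cytokine alone wells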

O=C(Cn1cc2c(n1)CCCC2)NCc1cccc(Cl)c1
EC50 [1]: > 120 µM (not active) | EC50 [2]: > 120 µM (not active) | EC50 [3]: > 120 µM (not active)

COc1ccccc1C(=O)NCCC(=O)Nc1ncccc1O
EC50 [4]: > 112 µM (not active) | EC50 [5]: > 112 µM (not active)

CCc1ccc(/C=C2\Oc3c(ccc(O)c3CN3CCN(CCO)CC3)C2=O)cc1
EC50 [6]: 37.1 µM (active) | EC50 [7]: 73.3 µM (active)

Cc1ccc(NC(=O)C2C(C(=O)O)C3C=CC2C32CC2)cc1 (centres undefined)
EC50 [8]: 46.2 µM (active) | EC50 [9]: > 38 µM (not active)

Cn1cc(S(=O)(=O)N2CCOCC2)cc1C(=O)Nc1ccc(Cl)cc1
EC50 [4]: > 112 µM (not active) | EC50 [5]: > 112 µM (not active)

COc1ccc(/C=C/CN2CCCC(CO)(Cc3cccc(Cl)c3)C2)cc1 (centres undefined)
EC50 [4]: > 112 µM (not active) | EC50 [5]: > 112 µM (not active)

CCCCN(C)S(=O)(=O)c1ccc(C(=O)Nc2nnc(-c3cccs3)o2)cc1
EC50 [8]: > 150 µM (inactive) | EC50 [10]: 0.68 µM (active) | EC50 [9]: 0.861 µM (active) | EC50 [11]: 1.09 µM (active) | EC50 [12]: 8 µM (active) | EC50 [13]: 3.65 µM (active)

COc1ccccc1N1CCN(C(=O)c2cc(-c3ccccc3O)on2)CC1
EC50 [4]: > 112 µM (not active) | EC50 [5]: > 112 µM (not active)

CCCCCCN1C(=O)/C(=C/Nc2ccccc2N2CCOCC2)C(=O)NC1=S
EC50 [6]: > 300 µM (not active) | EC50 [7]: > 300 µM (inconclusive)

CCOC(=O)c1ccc2nc(NC(=O)c3cccs3)sc2c1
EC50 [4]: 0.729 µM (active) | EC50 [5]: 10.7 µM (active)

CCOC(=O)C1=C(C)OC(N)=C(C#N)C1C1CCCCC1 (centres undefined)
EC50 [4]: > 112 µM (not active) | EC50 [5]: > 112 µM (not active)

CC1CCCCN1Cc1nc2c(c(=O)n(C)c(=O)n2C)n1CCc1ccccc1 (centres undefined)
EC50 [4]: > 112 µM (not active) | EC50 [5]: > 112 µM (not active)

COc1ccc(CCNCc2ccc(OCC(=O)N3CCCCC3)c(OC)c2)cc1OC
EC50 [4]: > 112 µM (not active) | EC50 [5]: 16.3 µM (active) | EC50 [11]: 0.133 µM (active) | EC50 [12]: > 60 µM (inconclusive)

O=C(O)CCc1ccc(-c2ccccc2)n1-c1cccc(C(=O)O)c1
EC50 [6]: > 300 µM (not active) | EC50 [7]: > 300 µM (not active)

O=C(O)c1ccc(COc2cccc(CO)c2)cc1
EC50 [4]: 44.4 µM (active) | EC50 [5]: 4.38 µM (active)

COc1ccc(-c2cn3c([n+]2-c2ccccc2)CCCCC3)cc1
EC50 [8]: > 150 µM (inactive) | EC50 [9]: 2.53 µM (active) | AC50 [14]: 2.58 µM (active)

CCN1C(=C(C#N)C#N)C=Cc2ccccc21
EC50 [6]: > 300 µM (inconclusive) | EC50 [7]: > 300 µM (not active)

Cc1ccc(C)c(N(CC(=O)Nc2ccccc2C(=O)NCc2ccco2)S(=O)(=O)c2ccccc2)c1
EC50 [1]: 15.6 µM (active) | EC50 [2]: > 120 µM (not active) | EC50 [3]: > 120 µM (not active)

CC/C(NCCCN(C)C)=C1/C(=O)NC(=O)N(c2ccc(OC)cc2)C1=O
EC50 [6]: > 300 µM (not active) | EC50 [7]: > 300 µM (not active)

COCCCNc1nc(N)c([N+](=O)[O-])c(NCc2ccccc2)n1
EC50 [1]: 19.4 µM (active) | EC50 [2]: > 120 µM (not active) | EC50 [3]: 14.2 µM (active)

Cc1ccc(N(C)S(=O)(=O)c2c(C)noc2/C=C/N(C)C)cc1
EC50 [6]: > 300 µM (not active) | EC50 [7]: > 300 µM (not active)

FC(F)(F)c1cc(C(F)(F)F)n2nc(-c3sccc3-n3cccc3)cc2n1
EC50 [6]: > 300 µM (not active) | EC50 [7]: > 300 µM (not active)

Cc1cc(NC(=O)/C=C/c2cccc(Cl)c2)n(-c2nc3ccccc3[nH]2)n1
EC50 [4]: > 112 µM (not active) | EC50 [5]: 49.7 µM (active)

Cc1cc(N)n2nc(-c3ccc(C(C)(C)C)cc3)cc2n1
EC50 [4]: 0.401 µM (active) | EC50 [5]: 2.35 µM (active)

O=C(NCc1ccco1)c1ccc(-c2ccccc2Cl)o1
EC50 [4]: > 112 µM (not active) | EC50 [5]: > 112 µM (not active)

CCc1nc(SCC(=O)Nc2cccc(C(F)(F)F)c2)c2c(=O)n(C)c(=O)n(C)c2n1
EC50 [1]: 19.1 µM (active) | EC50 [2]: 16.4 µM (active) | EC50 [3]: 15.9 µM (active)

Nc1nc(NCCc2ccccc2)nc(NCCO)c1[N+](=O)[O-]
EC50 [1]: 19.1 µM (active) | EC50 [2]: > 120 µM (not active) | EC50 [3]: 39.1 µM (active)

C/C(=N/N=C(\C)c1ccccc1O)c1ccccc1O
EC50 [6]: > 300 µM (not active) | EC50 [7]: > 300 µM (inconclusive)

O=C(Cn1cncn1)N/N=C/c1c2ccccc2cc2ccccc12
EC50 [6]: > 300 µM (not active) | EC50 [7]: > 300 µM (not active)

Cc1nc(O)nc(O)c1/C=N/NC(=O)CCNC(=O)OC(C)(C)C
EC50 [4]: > 112 µM (not active) | EC50 [5]: > 112 µM (not active)

CCOc1cccc(-c2c(C(=O)N/N=C/c3ccc(C)s3)nnn2-c2nonc2N)c1
EC50 [4]: > 112 µM (not active) | EC50 [5]: > 112 µM (not active)
